We go through 20 molecules from PubChem BioAssay AID330 (DTP/NCI, 2004).

Several values for one entry are separate records, joined by “and”; a condition that tells them apart may be missing. Equal values may be shown once. Inconclusive results and toxic doses are left out.

For this assay, the system named is P388 leukemia ip, CD2F1 mice, survival T/C. The experiment in a line: NCI In Vivo Anticancer Drug Screen. Data for tumor model P388 Leukemia (intraperitoneal) in CD2F1 (CDF1) mice. To be noted: endpoint: median survival time, higher = longer survival. Put shortly:
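Mice carrying the transplanted tumor received test compound or vehicle. Survival was recorded in each group, and the value is the treated-group measurement divided by that of the vehicle-treated control group.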

[1] abbreviates: dose: 12.5 mg/kg/injection, schedule: Q01DX009 (ip), vehicle: saline with Tween-80.
Where [2] appears, read: dose: 7.5 mg/kg/injection, schedule: Q01DX005 (ip), vehicle: Klucel (hydroxypropylcellulose) (HPC).
[3] abbreviates: dose: 100.0 mg/kg/injection, schedule: Q01DX001 (ip), vehicle: Klucel (hydroxypropylcellulose) (HPC).
Setting [4] is: dose: 100.0 mg/kg/injection, schedule: Q04DX003 (ip), vehicle: saline.
Setting [5] is: dose: 200.0 mg/kg/injection, schedule: Q04DX003 (ip), vehicle: saline.
Where [6] appears, read: dose: 400.0 mg/kg/injection, schedule: Q04DX003 (ip), vehicle: saline.
Where [7] appears, read: dose: 50.0 mg/kg/injection, schedule: Q01DX009 (ip), vehicle: saline with Tween-80.
Where [8] appears, read: dose: 25.0 mg/kg/injection, schedule: Q01DX009 (ip), vehicle: saline with Tween-80.

For the molecule `Cc1cc2ccccc2c[n+]1C`, the T/C reads like this: (dose: 1.56 mg/kg/injection, schedule: Q01DX009 (ip), vehicle: saline with Tween-80) 105 % of control; (dose: 3.12 mg/kg/injection, schedule: Q01DX009 (ip), vehicle: saline with Tween-80) 102 % of control; (dose: 6.25 mg/kg/injection, schedule: Q01DX009 (ip), vehicle: saline with Tween-80) 96 % of control; under setting [1], 105 % of control; (dose: 12.5 mg/kg/injection, schedule: Q04DX003 (ip), vehicle: saline) 100 % of control; (dose: 25.0 mg/kg/injection, schedule: Q04DX003 (ip), vehicle: saline) 100 % of control. The T/C (dose: 50.0 mg/kg/injection, schedule: Q04DX003 (ip), vehicle: saline) is 100 % of control.

Regarding `CC1=C(C(=O)Nc2cc(O)ccc2O)C(c2cccc([N+](=O)[O-])c2)C(C(=O)Nc2cc(O)ccc2O)=C(C)N1`, the T/C reads like this: under setting [2], 98 % of control; (dose: 15.0 mg/kg/injection, schedule: Q01DX005 (ip), vehicle: Klucel (hydroxypropylcellulose) (HPC)) 93 % of control; (dose: 30.0 mg/kg/injection, schedule: Q01DX005 (ip), vehicle: Klucel (hydroxypropylcellulose) (HPC)) 100 % of control.

Regarding `CCOC(=O)Nc1cc(NC/C(=N/O)c2ccc(Cl)cc2)c([N+](=O)[O-])c(N)n1`, the T/C (dose: 50.0 mg/kg/injection, schedule: Q01DX001 (ip), vehicle: Klucel (hydroxypropylcellulose) (HPC)) was 90 % of control and the T/C under setting [3] was 87 % of control.

As for `CC(N)C12CC3CC(CC(C3)C1)C2` (stereo not given), the T/C was 108 % of control (dose: 25.0 mg/kg/injection, schedule: Q04DX002 (ip), vehicle: saline); 100 % of control (dose: 50.0 mg/kg/injection, schedule: Q04DX002 (ip), vehicle: saline); 100 % of control (dose: 100.0 mg/kg/injection, schedule: Q04DX002 (ip), vehicle: saline); 101 % of control (dose: 100.0 mg/kg/injection, schedule: Q04DX002 (ip), vehicle: suspension in saline).

Regarding `CN(C)C(=O)C[n+]1ccccc1`, the T/C runs as follows: (dose: 12.5 mg/kg/injection, schedule: Q01DX009 (ip), vehicle: saline) 99 % of control; (dose: 25.0 mg/kg/injection, schedule: Q01DX009 (ip), vehicle: saline) 98 % of control; (dose: 50.0 mg/kg/injection, schedule: Q01DX009 (ip), vehicle: saline) 101 % of control.

Regarding `COC(C)C(Br)C(=O)NN=C(c1ccccc1)c1ccccc1` (stereo not given), the T/C was 95 % of control under setting [4], 93 % of control under setting [5] and 95 % of control under setting [6].

On to `c1cc(C2=NCCN2)ccc1Nc1ccc(-c2cc3ccc(C4=NCCN4)cc3[nH]2)cc1`, for which the T/C was 150 % of control and 165 % of control (dose: 3.75 mg/kg/injection, schedule: Q01DX005 (ip), vehicle: Klucel (hydroxypropylcellulose) (HPC)); 154 % of control and 177 % of control under setting [2].

Regarding `COc1cc2c(cc1OC)C(Cc1ccc(OC)c(Oc3ccc(CC4c5cc(OC)c(OC)c(O)c5CCN4C)cc3)c1)N(C)CC2` (stereo not given), the T/C was 106 % of control (dose: 20.0 mg/kg/injection, schedule: Q01DX009 (ip), vehicle: Klucel (hydroxypropylcellulose) (HPC)); 107 % of control (dose: 40.0 mg/kg/injection, schedule: Q01DX009 (ip), vehicle: Klucel (hydroxypropylcellulose) (HPC)); 111 % of control (dose: 80.0 mg/kg/injection, schedule: Q01DX009 (ip), vehicle: Klucel (hydroxypropylcellulose) (HPC)).

Take `O=S(=O)(O)O.[Cu+2].[NH-]CCC[N-]CCCC[N-]CCC[NH-]`: the T/C was 108 % of control (dose: 6.25 mg/kg/injection, schedule: Q01DX001 (ip), vehicle: saline); 113 % of control and 92 % of control (dose: 12.5 mg/kg/injection, schedule: Q01DX001 (ip), vehicle: saline); 113 % of control (dose: 25.0 mg/kg/injection, schedule: Q01DX001 (ip), vehicle: saline); 106 % of control (dose: 50.0 mg/kg/injection, schedule: Q01DX001 (ip), vehicle: saline).

`COC(=O)C1(c2ccccc2)OP2(N(C)C)(OC1(C(=O)OC)c1ccccc1)N(C)CCN2C` (stereo not given): the T/C is 104 % of control (dose: 50.0 mg/kg/injection, schedule: Q01DX005 (ip), vehicle: saline + Tween-80 + alcohol); 102 % of control (dose: 50.0 mg/kg/injection, schedule: Q01DX005 (ip), vehicle: saline with Tween-80); 100 % of control (dose: 100.0 mg/kg/injection, schedule: Q01DX005 (ip), vehicle: saline + Tween-80 + alcohol); 102 % of control (dose: 100.0 mg/kg/injection, schedule: Q01DX005 (ip), vehicle: saline with Tween-80); 100 % of control (dose: 200.0 mg/kg/injection, schedule: Q01DX005 (ip), vehicle: saline + Tween-80 + alcohol); 105 % of control (dose: 200.0 mg/kg/injection, schedule: Q01DX005 (ip), vehicle: saline with Tween-80).

For `O=C(CSC1CCc2ccccc21)N/N=C/c1ccco1` (stereo not given), the T/C by setting is: (dose: 50.0 mg/kg/injection, schedule: Q01DX005 (ip), vehicle: Klucel (hydroxypropylcellulose) (HPC)) 98 % of control; (dose: 100.0 mg/kg/injection, schedule: Q01DX005 (ip), vehicle: Klucel (hydroxypropylcellulose) (HPC)) 100 % of control; (dose: 200.0 mg/kg/injection, schedule: Q01DX005 (ip), vehicle: Klucel (hydroxypropylcellulose) (HPC)) 88 % of control.

As for `CCCC/C(=N\NC(N)=NC)c1ccccc1`, the T/C was 99 % of control (dose: 25.0 mg/kg/injection, schedule: Q04DX002 (ip), vehicle: saline with Tween-80) and 100 % of control (dose: 50.0 mg/kg/injection, schedule: Q04DX002 (ip), vehicle: saline with Tween-80).

On to `CNC(=S)N(C1CCCCC1)C1CCCCC1`, for which the T/C is, setting by setting: under setting [7], 103 % of control; (dose: 100.0 mg/kg/injection, schedule: Q01DX009 (ip), vehicle: saline with Tween-80) 105 % of control; (dose: 200.0 mg/kg/injection, schedule: Q01DX009 (ip), vehicle: saline with Tween-80) 100 % of control.

`O=C1OC(c2ccccc2)(c2ccccc2)C2CC12c1ccccc1` (stereo not given): the T/C runs as follows: under setting [3], 95 % of control; (dose: 200.0 mg/kg/injection, schedule: Q01DX001 (ip), vehicle: Klucel (hydroxypropylcellulose) (HPC)) 95 % of control; (dose: 400.0 mg/kg/injection, schedule: Q01DX001 (ip), vehicle: Klucel (hydroxypropylcellulose) (HPC)) 88 % of control.

With `O=C1c2ccc([N+](=O)[O-])cc2C(=O)N1CC[P+](c1ccccc1)(c1ccccc1)c1ccccc1`, the T/C (dose: 0.78 mg/kg/injection, schedule: Q01DX009 (ip), vehicle: water) was 100 % of control; the T/C (dose: 1.56 mg/kg/injection, schedule: Q01DX009 (ip), vehicle: water) is 100 % of control; the T/C (dose: 3.13 mg/kg/injection, schedule: Q01DX009 (ip), vehicle: water) was 103 % of control; the T/C (dose: 6.25 mg/kg/injection, schedule: Q01DX009 (ip), vehicle: water) was 98 % of control; the T/C (dose: 12.5 mg/kg/injection, schedule: Q01DX009 (ip), vehicle: water) was 98 % of control; the T/C (dose: 25.0 mg/kg/injection, schedule: Q01DX009 (ip), vehicle: water) was 106 % of control and 107 % of control.

On to `OC(CC1CCCCN1)c1ccccc1` (stereo not given), for which the T/C (dose: 12.5 mg/kg/injection, schedule: Q01DX005 (ip), vehicle: saline) was 98 % of control; the T/C under setting [1] was 107 % of control; the T/C (dose: 25.0 mg/kg/injection, schedule: Q01DX005 (ip), vehicle: saline) is 105 % of control; the T/C under setting [8] was 101 % of control; the T/C (dose: 50.0 mg/kg/injection, schedule: Q01DX005 (ip), vehicle: saline) was 115 % of control; the T/C under setting [7] is 100 % of control and 102 % of control.

For `CSc1ncc(Br)c(Sc2nc(N)nc3nc[nH]c23)n1`, the T/C reads like this: under setting [1], 95 % of control; under setting [8], 86 % of control.

In the case of `CCC1CC(C(=O)O)CC(=O)N1` (stereo not given), the T/C is 92 % of control (dose: 17.5 mg/kg/injection, schedule: Q01DX005 (ip), vehicle: Klucel (hydroxypropylcellulose) (HPC)); 90 % of control (dose: 35.0 mg/kg/injection, schedule: Q01DX005 (ip), vehicle: Klucel (hydroxypropylcellulose) (HPC)); 97 % of control (dose: 70.0 mg/kg/injection, schedule: Q01DX005 (ip), vehicle: Klucel (hydroxypropylcellulose) (HPC)).

On to `CC(=O)Nc1ccc(S(=O)(=O)/C(=C/c2ccc(-c3ccc(Br)cc3)o2)c2ccc([N+](=O)[O-])o2)cc1`, for which the T/C was 86 % of control (dose: 50.0 mg/kg/injection, schedule: Q01DX009 (ip), vehicle: suspension in saline) and 104 % of control (dose: 100.0 mg/kg/injection, schedule: Q01DX009 (ip), vehicle: suspension in saline).

Take `COc1ccc(C2C3CCCC(C3=O)C(c3ccc(OC)cc3)N2C)cc1` (stereo not given): the T/C reads like this: under setting [4], 99 % of control; under setting [5], 97 % of control; under setting [6], 96 % of control.
